Measured values taken from patent US20110039848A1, “FIVE-MEMBERED RING COMPOUND” (priority 2008, published 2011).

Assays:
rat lung membrane SMBS = assay: Receptor-binding assessment test of compounds using rat lung membranes ([125I]-iodocyanopindolol ligand binding assay); settings: ratio of inhibiting specific binding of [125I]-iodocyanopindolol to rat lung membrane SMBS; test compound 1 μM
Experimental: Receptor-Binding Assessment Test of Compounds Using Rat Lung Membranes
The assessment test was carried out according to the method of Sugasawa, T. et al., J. Biol. Chem., 272, 21244-21252 (1997).
Preparation of Rat Lung Membranes
Lung taken out from SD male rat (7-week old under test, Charles River Laboratories Japan, Inc.) was removed trachea and blood vessels to shred and washed with iced tris-saline buffer (10 mM tris hydrochloric acid-154 mM sodium chloride, pH7.4). The resultant was homogenized by Hiscotron with ice-cold tris-saline buffer containing a homogenization buffer (1 mM ethylenediaminetetraacetic acid (EDTA), 1 mM 4-(2-aminoethyl)benzenesulfonyl fluoride (AEBSF), 5 μg/ml aprotinin, 5 μg/ml leupeptine) (maximum rate: 1 minute). The supernatant after low-speed centrifugation (1500×g, 20 minutes, 4° C.) was ultracentrifuged (100000×g, 20 minutes, 4° C.), and the pellet was suspended in tris-saline buffer to store at −80° C. The protein concentrations were determined by Bio-Rad Protein Assay Kit using bovine serum albumin (BSA) as a standard.
To each well in protein-nonabsorptive round-bottom 96-well assay plate (commercially available from Iwaki Glass Co., Ltd.) were added tris-saline buffer (200 μl) containing 1 nM [^125I]-iodocyanopindolol (commercially available from Amersham plc), 10 μM serotonine, 20 μm dl-propranolol, 10 μM phentolamine, 1.1 mM ascorbic acid and 100 μg lung membrane, and the mixture was pipetted to combine and then incubated at 37° C. for 30 minutes. The test compounds were dissolved in 100% dimethyl sulfoxide solution, and thereto was added 2 μl (final DMSO concentration: 1%). In order to calculate nonspecific binding amounts, to the mixture was added L-threo-3-(3,4-dihydroxyphenyl)-N-[3-(4-fluorophenyl)propyl]serine pyrrolidine amide at 100 μM of the final concentration as an alternative to the test compounds. During this time, 100 μl of 0.3% polyethyleneimine (PEI)/tris-saline buffer was added to MultiScreen plate (96-well B glass fiber, Millipore Cat. No. MAFB NOB10), and incubated for over 30 minutes. The resultant was filtered with aspiration (aspiration by the addition of 200 μl iced tris-saline buffer) to wash, and the reaction solutions on 96-well assay plate were filtered with aspiration to wash four times on MultiScreen plate. B glass fiber filter paper at the bottom of MultiScreen plate was punched out, and γ-ray doses of [^125I]-iodocyanopindolol trapped on the filter paper were determined as binding amounts. The binding amounts in the presence of DMSO (final concentration: 1%) were total binding amounts, and the binding amounts in the presence of 100 μM L-threo-3-(3,4-dihydroxyphenyl)-N-[3-(4-fluorophenyl)propyl]serine pyrrolidine amide were nonspecific binding amounts. The values subtracted the nonspecific binding amounts from the total binding amounts were the specific binding amounts. The binding activity of a compound was calculated according to the following formula, which was shown in the ratio of inhibiting the specific binding of [^125I]-iodocyanopindolol to rat lung membrane SMBS by the test compound.

[1] = test system: Corticosterone generation; assay: Assessment test of steroid hormone synthesis inhibition (Corticosterone generation in rat adrenal gland cells stimulated with cAMP); assay type: cell-based; settings: inhibition rate of 10 μM test article to Corticosterone generation, 2 hours with cAMP
Experimental: Assessment Test of Steroid Hormone Synthesis Inhibition
Control examples 1 to 4: Control example 1 was Example 350 of Patent Document 2. Control examples 2 to 4 were synthesized according to Patent Document 2.
Adrenal glands were taken out from rats, and removed excess connective tissues, adiposes and membranes in D-MEM. The adrenal glands were transferred to polytubes, and quickly segmentalized with scissors. Thereto was added D-MEM containing 1 mg/mL collagenase and […] DNase I, and then the mixture was shaken at 37° C. for 10 minutes in 80 times/minute. Then, the mixture was pipetted by 1 mL truncated pipette tip, and shaken again under the same condition. After 10 minutes, the mixture was pipetted again by 1 mL pipette tip, and the cell suspension was filtered through metal mesh. The filtrate was centrifuged at 4° C. for 5 minutes in 500 g. The supernatant was removed, and thereto was added a mixed solution of 0.16 M NH4Cl and 0.17 M Tris-HCl in 3 mL. The mixture was let stand on ice for 5 minutes, and then centrifuged under the same condition. Then, the supernatant was removed and then thereto was added D-MEM. The cell suspension was prepared and centrifuged under the same condition. Again, the supernatant was removed and then thereto was added D-MEM to give a cell suspension. The cell suspension was filtered by Cell Strainer (BD Falcon®). The filtrate was centrifuged under the same condition. After the completion of the centrifugation, the supernatant was removed, and thereto was added D-MEM containing 1% Penicillin Streptomycin Mixed Solution and 10% FBS. The mixture was seeded in Multiple well plate for adhesive cell culture, 96 wells (IWAKI) in 10000 cells/well, and incubated at 37° C. overnight in CO2 incubator.
Test article concentrations were prepared in DMSO to 2000 μM, and D-MEM containing 20 μM test article in D-MEM was prepared.
Cell-seeded plate was incubated overnight, and then the medium was removed and thereto was added D-MEM containing 20 μM test article in 50 μL/well. Then, to the mixture was promptly added D-MEM containing 20 μM cAMP in 50 μL/well so that the final concentration of the test article was 10 μM. After the addition of 2 types of D-MEM, the mixture was incubated at 37° C. for 2 hours in CO2 incubator. After 2 hours, the supernatant (50 μL) of the medium was collected. For cells, the cell toxicity of the test article was assessed according to a conventional method using Cell Titer-Glo® (Promega). For the collected supernatant, the Corticosterone concentration in the supernatant was determined according to a conventional method using Corticosterone EIA kit (Cayman).
The inhibition rate of 10 μM test article to Corticosterone generation was calculated according to the following formula confirming that the cell toxicity by the test article was not recognized.

[2] = test system: Guinea Pig Late Asthma Model; assay: Assessment of compounds in guinea pig late asthma model; assay type: in vivo; settings: 3 mg/kg orally one hour before antigen challenge
Experimental: Assessment of Compounds in Guinea Pig Late Asthma Model
The assessment was carried out using a compound obtained in Example 1.
Hartley male guinea pigs (commercially available from Japan SLC, Inc.) were pre-bred about 1 week after arrival, and then exposed by inhalation to 2% (w/v) ovalbumin (OA) saline in a plastic box (4 guinea pigs/box) for 5 minutes using a ultrasonic nebulizer (OMRON NE-U12, condition: maximum nebulizing amounts, maximum air volume), and sensitized (day 0). The same operation was carried out on day 7. On day 14 or 15, each guinea pig was administered 2% OA by inhalation for 5 minutes to initiate a response (challenge). […]
A determination and analysis of respiratory function were carried out according to the method of Penny A. Hutson et al. Am Rev Respir Dis 1988 137, 548-557. The respiratory function was determined before the antigen challenge (before drug administration) and 5 minutes and 1, 2, 3, 4, 5, 6, 7 and 8 hours after the antigen challenge, and wave profiles were imported using MacLab Chart v3.4 (AD Instruments) and analyzed later. […] The sRaw/TV values subtracting the former values were plotted against measured times, and each area under the curve (AUC4-8hr) of each animal was calculated to compare each other in the range of 4 to 8 hours after the antigen challenge. […]

| Structure (SMILES) | Binding Activity (%) (1 μM) (rat lung membrane SMBS) | inhibition at 10 µM [1] | AUC4-8 hr ((sRaw/TV) · h) ([2]; OA-sensitized Hartley male guinea pigs, 4 to 8 hours after challenge) | Improvement Rate (%) ([2]; versus control group (0.5% MC), AUC4-8hr, p<0.01 Dunnett's test) |
| --- | --- | --- | --- | --- |
| CNC(=O)NCCn1c(-c2ccc(N3CCOCC3)nn2)cs/c1=N\c1ccccc1F [Example 2] | 75% | -8% |  |  |
| CCNC(=O)NCCn1c(-c2ccc(N3CCOCC3)nn2)cs/c1=N\c1cccc(F)c1 [Example 5] | 83% | -28% |  |  |
| CNC(=O)NCCn1c(-c2ccc(N3CCOCC3)nn2)cs/c1=N\c1cccc(F)c1 [Example 1, N-{2-[(2Z)-2-[(3-Fluorophenyl)imino]-3-[6-(morpholin-4-yl)pyridazinyl]-1,3-thiazol-3(2H)-yl]ethyl}-N′-methylurea] | 103% | -2% | 0.411 (sRaw/TV) · h | 47% |

Now from value to molecule, other results behind:

| Binding Activity (%) (1 μM) (rat lung membrane SMBS) | Structure (SMILES) | inhibition at 10 µM [1] | AUC4-8 hr ((sRaw/TV) · h) ([2]; OA-sensitized Hartley male guinea pigs, 4 to 8 hours after challenge) | Improvement Rate (%) ([2]; versus control group (0.5% MC), AUC4-8hr, p<0.01 Dunnett's test) |
| --- | --- | --- | --- | --- |
| 88% | CCNC(=O)NCCn1c(-c2ccc(N3CCOCC3)nn2)cs/c1=N\c1ccc(Cl)cc1 [Example 11] | -8% |  |  |
| 89% | CNC(=O)NCCn1c(-c2ccc(N3CCOCC3)nn2)cs/c1=N\c1cncc(C(F)(F)F)c1 [Example 15] | 11% |  |  |
| 82% | CCNC(=O)NCCn1c(-c2ccc(N3CCOCC3)nn2)cs/c1=N\c1ccc(F)cc1 [Example 7] | 15% |  |  |
| 93% | CNC(=O)NCCn1c(-c2ccc(N3CCOCC3)nn2)cs/c1=N\c1ccccc1Cl [Example 8] | -12% |  |  |
